Source: ChEMBL document CHEMBL4673271, “Denigrins and Dactylpyrroles, Arylpyrrole Alkaloids from a Dactylia sp. Marine Sponge” (J Nat Prod, 2020)
Starred links: 1 amine or outer side, 2 acyl side, 3 side chain; linkers in the order of their positions; H or OH if unused. Positions of bridges follow the written chain, without caps; N, C: chain ends. Non-standard residues stand in square brackets, D forms with d. Residues, ends and D or L forms follow the SMILES beside them. Chains are numbered I, II in the order given. Actinocin(1to9) = Cc1c2oc3c(C)ccc(C(=O)[*:2])c3nc-2c(C(=O)[*:1])c(N)c1=O; NMeV = CN[C@H](C(=O)O)C(C)C; Sar = CNCC(=O)O

Legend:
Format in all cases: cell-based
[1] = Inhibition of PAX3-FOXO1 (unknown origin) stably transfected Rh4 cells co-expressing CMV-Luc after 24 hrs by SteadyLite luciferase assay; conditions: Homo sapiens, Rh4, 24 h
[2] = Cytotoxicity against human Rh4 cells assessed as reduction in cell viability >=20 uM
[3] = Inhibition of PAX3-FOXO1 (unknown origin) stably transfected Rh4 cells co-expressing ALK-Luc after 24 hrs by SteadyLite luciferase assay; conditions: Homo sapiens, Rh4, 24 h

Row | SMILES | IC50 [1] [µM] | Activity [2] | IC50 [3] [µM]
1 | O=C1C(c2ccc(O)cc2)=C2C(=C(c3ccc(O)cc3)C(=O)N2CCc2ccc(O)cc2)c2c1[nH]c1c(O)cccc21 | 13 | Toxic | 13
2 | Cc1c2oc3c(C)ccc(C(=O)N[C@@H]4C(=O)N[C@H](C(C)C)C(=O)N5CCC[C@H]5C(=O)N(C)CC(=O)N(C)[C@@H](C(C)C)C(=O)O[C@@H]4C)c3nc-2c(C(=O)N[C@@H]2C(=O)N[C@H](C(C)C)C(=O)N3CCC[C@H]3C(=O)N(C)CC(=O)N(C)[C@@H](C(C)C)C(=O)O[C@@H]2C)c(N)c1=O [DACTINOMYCIN] (I: T[dV]P[Sar][NMeV] / II: T[dV]P[Sar][NMeV]; ester I:1-I:C, II:1-II:C; linker I:N-II:N via Actinocin(1to9)) | 0.001 | – | 0.001
